The test system of series [1] is human lung fibroblast cell line WI-38. Nature of the series: Inhibition of IL-1β-induced PGE2 production, whole cell-based assay. The note with it: for PGE2 (pg/ml) / PGE2: IL-1β 100 pg/mL, 24 hours; for IC50: Homo sapiens; for anti-inflammatory activity in vitro, R- versus S-enantiomer: conclusion from Tables 1-4. The protocol: Compounds were tested for anti-inflammatory activity using a whole cell-based assay, wherein the human lung fibroblast cell line WI-38 was cultured in Eagle's basal media supplemented with 10% fetal calf serum (FCS) in 48-well tissue culture dishes in a humidified 7% CO2 atmosphere at 37° C. When the cells reached confluence, they were fed with fresh media for 24 hours. The media was removed and fresh media, containing either 5% or 10% FCS, was added to the cells. […] Interleukin-1β (Calbiochem) in 0.1% bovine serum albumin in phosphate buffered saline was added in a 1 μL aliquot to give a final concentration of 100 pg/mL. The cells were cultured for 24 hours and the amount of PGE2 secreted into the cell culture media was assayed using a PGE2 enzyme immunoassay kit (Cayman Chemicals, Ann Arbor, Mich.). Inhibition of PGE2 production is indicative of anti-inflammatory activity.
The IC50 values of enantiomerically pure R- and S-norfluoxetine were determined by incubation of the WI-38 cells with varying concentrations of the compounds in question ([…]). The PGE2 produced for each concentration was plotted against the concentration of compound using the 6 safit 4.0 program (Erithacus software) and the IC50 determined by fitting the data to the 4-parameter equation.

Series [2] can be described thus: Serum levels of norfluoxetine after fluoxetine treatment (Prozac package insert). Type of series: in vivo. Particulars: human, oral, humans, after treatment for 30 days with 40 mg per day of fluoxetine, approximate conversion of ng/ml. An excerpt:
It is noteworthy that these values, especially that of R-norfluoxetine, fall within values that may be obtained in serum in humans.

For a further series, the system named is serotonin reuptake. The note with it: Physicians' Desk Reference; cited from earlier work.
[3] abbreviates: Table 1, 10% fetal calf serum-containing media, compound 0.5 uM.
Where [4] appears, read: Table 1, 10% fetal calf serum-containing media, compound 10 uM.
[5] abbreviates: Table 2, 5% fetal calf serum-containing media, compound 0.5 uM.
The mark [6] stands for this setting: Table 2, 5% fetal calf serum-containing media, compound 10 uM.
Setting [7] is: Table 3, 10% fetal calf serum-containing media, compound 0.5 uM.
The mark [8] stands for this setting: Table 3, 10% fetal calf serum-containing media, compound 10 uM.
[9] abbreviates: Table 4, 5% fetal calf serum-containing media, compound 0.5 uM.
[10] abbreviates: Table 4, 5% fetal calf serum-containing media, compound 10 uM.

Read-outs that look alike come from different tables or passages of the source.

As to `C[C@H](C(=O)O)c1cccc(C(=O)c2ccccc2)c1` [(S)-ketoprofen], the “PGE2 (pg/ml)” value in series [1] (setting [3]), in series [1] (setting [4]) and in series [1] (setting [6]) was “low” in each case. Further, the “PGE2” value in series [1] (setting [5]) was 145 pg/mL.

With `CC(C(=O)O)c1cccc(C(=O)c2ccccc2)c1` (racemic) [rac-ketoprofen, ketoprofen], the “PGE2 (pg/ml)” value in series [1] (setting [4]) and in series [1] (setting [6]) was “low” in each case. In series [1] (setting [5]), the “PGE2” value turned out to be 119 pg/mL.

Regarding `C[C@@H](C(=O)O)c1cccc(C(=O)c2ccccc2)c1` [(R)-ketoprofen], the “PGE2 (pg/ml)” value in series [1] (setting [3]), in series [1] (setting [4]), in series [1] (setting [5]) and in series [1] (setting [6]) was “low” each time.

Consider `Cc1ccc(-c2cc(C(F)(F)F)nn2-c2ccc(S(N)(=O)=O)cc2)cc1` [celebrex], for which the “PGE2 (pg/ml)” value in series [1] (setting [3]), in series [1] (setting [4]), in series [1] (setting [6]), in series [1] (setting [7]), in series [1] (setting [8]) and in series [1] (setting [9]) was “low” in each case. In series [1] (setting [10]), the “PGE2 (pg/ml)” value is on record as “low”. In addition, the “PGE2” value in series [1] (setting [5]) was found to be 16 pg/mL.

The compound `NCCC(Oc1ccc(C(F)(F)F)cc1)c1ccccc1` (racemic) [rac-norfluoxetine, (±)-γ-[4-(trifluoromethyl)-phenoxy]benzenepropanamine] showed a concentration at 30 days in series [2] of 230 to 830 nM. Also, the “PGE2” value in series [1] (setting [3]) came to 189 pg/mL. Besides, the “PGE2 (pg/ml)” value in series [1] (setting [4]), in series [1] (setting [5]) and in series [1] (setting [6]) was “low” throughout.

Regarding `NCC[C@@H](Oc1ccc(C(F)(F)F)cc1)c1ccccc1` [(R)-norfluoxetine, R-norfluoxetine], the IC50 in series [1] (WI-38, read-out: IC50 (PGE2 produced)) is about 790 nM. The “PGE2” value came out at 714 pg/mL in series [1] (setting [3]), 159 pg/mL in series [1] (setting [4]), 255 pg/mL in series [1] (setting [5]) and 31 pg/mL in series [1] (setting [6]). In addition, in series [1], the “anti-inflammatory activity in vitro, R- versus S-enantiomer” value is recorded as “substantially equipotent”. Moreover, the “potency in inhibiting serotonin uptake” value in the series with serotonin reuptake is listed as “significantly less potent than racemic fluoxetine”.

`CNCCC(Oc1ccc(C(F)(F)F)cc1)c1ccccc1` (racemic) [rac-fluoxetine, (±)-N-methyl-γ-[4-(trifluoromethyl)-phenoxy]benzenepropanamine]: the “PGE2 (pg/ml)” value in series [1] (setting [3]), in series [1] (setting [4]), in series [1] (setting [5]), in series [1] (setting [6]) and in series [1] (setting [10]) was “low” each time. The “PGE2” value amounted to 545 pg/mL in series [1] (setting [7]), 156 pg/mL in series [1] (setting [8]) and 22 pg/mL in series [1] (setting [9]).

Take `NCC[C@H](Oc1ccc(C(F)(F)F)cc1)c1ccccc1` [(S)-norfluoxetine, S-norfluoxetine]: the IC50 in series [1] (WI-38 cells, 0.009-20 concentrations, 4-parameter fit, read-out: IC50 (PGE2 produced)) is about 1400 nM. Besides, the “PGE2” value came out at 809 pg/mL in series [1] (setting [3]), 486 pg/mL in series [1] (setting [4]), 483 pg/mL in series [1] (setting [5]) and 112 pg/mL in series [1] (setting [6]). Further, the “anti-inflammatory activity in vitro, R- versus S-enantiomer” value in series [1] is given as “substantially equipotent”. Moreover, the “potency in inhibiting serotonin uptake” value with serotonin reuptake was “potent and selective serotonin uptake inhibition”.

Turning to `CNCCC=C1c2ccccc2CCc2ccccc21` [nortriptylene], the “PGE2” value in series [1] (setting [7]) was 2040 pg/mL; in series [1] (setting [8]) it was 648 pg/mL; in series [1] (setting [9]), 880 pg/mL; in series [1] (setting [10]), 331 pg/mL.

One may read the IC50 as the midpoint of a concentration-inhibition curve.
